Source: article PMC2877376 (Journal of biomolecular screening, 2009)

System: E. coli K-12 sulA-gfp (strain SS996)
Assay: RecA-dependent SOS activation, sulA-gfp reporter
Type: cell-based, Escherichia coli
Settings: ciprofloxacin only, 90 min, 37 °C; untreated bacteria 0.76

O=C(O)c1cn(C2CC2)c2cc(N3CCNCC3)c(F)cc2c1=O [ciprofloxacin]
relative GFP expression (GFP/DAPI intensity ratio): 0.87
